Measurements taken from ChEMBL document CHEMBL1201862, “PubChem BioAssay data set” (2004).
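Step 1: Grow cells in 96-well plates. Step 2: Expose to compound for 48 hours at 5 concentrations. Step 3: Interpolate endpoints linearly; if unreached, use highest concentration. At the GI50, growth is halved.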 Calls of active or inactive are those of the source. Rule as the data show it: active = GI50 up to about 1.1 µM and inactive = higher.

Key:
Assay in all cases: NCI anticancer screen, dose series, 48 h
OVCAR-8 = system: OVCAR-8
SNB-75 = system: SNB-75
K562 = system: K562
OVCAR-4 = system: OVCAR-4
SK-MEL-5 = system: SK-MEL-5
IGROV-1 = system: IGROV-1
RXF 393 = system: RXF 393
HOP-62 = system: HOP-62
SF-295 = system: SF-295
ACHN = system: ACHN
CAKI-1 = system: CAKI-1
A498 = system: A498
SK-MEL-28 = system: SK-MEL-28
UO-31 = system: UO-31
NCI-H522 = system: NCI-H522
KM12 = system: KM12
Malme-3M = system: Malme-3M

Measured: GI50

CN(C)CCCNC(=O)c1cccc2nc3ccccc3nc12
inactive: OVCAR-8 12.6 µM | SNB-75 35.8 µM | K562 7.46 µM | OVCAR-4 14.1 µM | SK-MEL-5 > 54 µM | IGROV-1 34.2 µM | RXF 393 15.6 µM | HOP-62 19.9 µM | SF-295 19.5 µM | ACHN 7.43 µM | CAKI-1 > 36.1 µM | A498 16 µM | SK-MEL-28 19.2 µM | UO-31 24.5 µM | NCI-H522 26.6 µM | KM12 13.5 µM | Malme-3M 4.42 µM

Cc1cc(N(CCC#N)CCC#N)ccc1/C=C(/NC(=O)/C=C/c1ccccc1)C(N)=O
inactive: OVCAR-8 > 100 µM | SNB-75 > 100 µM | K562 62.1 µM | SK-MEL-5 > 100 µM | IGROV-1 > 100 µM | RXF 393 4.19 µM | HOP-62 > 100 µM | SF-295 > 100 µM | ACHN > 100 µM | CAKI-1 > 100 µM | A498 > 100 µM | SK-MEL-28 > 100 µM | UO-31 > 100 µM | NCI-H522 13.8 µM | KM12 > 100 µM | Malme-3M > 100 µM

Clc1ccc(CCN2CCOCC2)c(Cl)c1
inactive: OVCAR-8 > 100 µM | SNB-75 17.6 µM | K562 > 100 µM | OVCAR-4 > 100 µM | SK-MEL-5 > 100 µM | IGROV-1 > 100 µM | RXF 393 12.5 µM | HOP-62 > 100 µM | SF-295 > 100 µM | ACHN > 100 µM | CAKI-1 > 100 µM | A498 > 100 µM | SK-MEL-28 > 100 µM | UO-31 > 100 µM | NCI-H522 > 100 µM | KM12 > 100 µM | Malme-3M > 100 µM

CN(C)CC1CC/C(=C\c2ccc(Cl)c(Cl)c2)C1=O (stereo unspecified)
inactive: OVCAR-8 25.6 µM | SNB-75 > 41.7 µM | K562 5.58 µM | OVCAR-4 19 µM | SK-MEL-5 45.7 µM | IGROV-1 > 50.4 µM | RXF 393 > 45.4 µM | HOP-62 > 58.2 µM | SF-295 48.6 µM | ACHN > 45.1 µM | CAKI-1 14.8 µM | A498 30.2 µM | SK-MEL-28 39.3 µM | UO-31 > 40.6 µM | NCI-H522 6.38 µM | KM12 11.5 µM | Malme-3M > 62.5 µM

O=C1C2C3C=CC(C2C(=O)N1CN1CCSCC1)C1C2C(=O)N(CN4CCSCC4)C(=O)C2C31 (stereo unspecified)
inactive: OVCAR-8 > 94.2 µM | SNB-75 45.3 µM | K562 > 100 µM | OVCAR-4 > 100 µM | SK-MEL-5 > 100 µM | IGROV-1 > 100 µM | RXF 393 > 100 µM | HOP-62 > 100 µM | SF-295 > 100 µM | ACHN > 77.6 µM | CAKI-1 > 100 µM | A498 > 100 µM | SK-MEL-28 > 100 µM | UO-31 > 100 µM | NCI-H522 > 100 µM | KM12 > 100 µM | Malme-3M > 100 µM

COC(=O)/C(=C\c1ccc(N(CCC#N)CCC#N)cc1)NC(=O)c1cc([N+](=O)[O-])ccc1Cl
inactive: OVCAR-8 > 100 µM | SNB-75 > 100 µM | K562 > 100 µM | OVCAR-4 > 100 µM | SK-MEL-5 > 100 µM | IGROV-1 > 100 µM | RXF 393 > 100 µM | HOP-62 > 100 µM | SF-295 > 100 µM | ACHN > 100 µM | CAKI-1 > 100 µM | A498 > 100 µM | SK-MEL-28 > 100 µM | UO-31 > 100 µM | NCI-H522 > 100 µM | KM12 > 100 µM | Malme-3M > 100 µM

C1CN2CCN3CCN4CCN1[PH]243
inactive: OVCAR-8 > 100 µM | SNB-75 > 100 µM | K562 > 100 µM | OVCAR-4 > 100 µM | SK-MEL-5 > 100 µM | IGROV-1 > 100 µM | RXF 393 > 100 µM | HOP-62 > 100 µM | SF-295 > 100 µM | ACHN > 100 µM | A498 > 100 µM | SK-MEL-28 > 100 µM | UO-31 > 100 µM | NCI-H522 > 100 µM | KM12 > 100 µM | Malme-3M > 100 µM

CCOc1ccc(NC(=O)C2=C(C)NC(C)=C(C(=O)Nc3ccc(OCC)cc3)C2c2ccc(O)c(OC)c2)cc1
inactive: OVCAR-8 87.3 µM | SNB-75 14.3 µM | K562 40.8 µM | OVCAR-4 36.9 µM | SK-MEL-5 46 µM | IGROV-1 > 100 µM | RXF 393 28.9 µM | HOP-62 29.5 µM | SF-295 54.7 µM | ACHN 55.1 µM | CAKI-1 > 100 µM | A498 19.3 µM | SK-MEL-28 53.2 µM | UO-31 52.4 µM | NCI-H522 56.6 µM | KM12 47.9 µM | Malme-3M 64.1 µM

CC1C(O)=C(O)c2ccccc2N1O (stereo unspecified)
inactive: OVCAR-8 > 100 µM | SNB-75 > 100 µM | K562 38.7 µM | OVCAR-4 > 100 µM | SK-MEL-5 > 100 µM | IGROV-1 > 100 µM | RXF 393 60.4 µM | HOP-62 73.3 µM | SF-295 > 100 µM | ACHN > 100 µM | CAKI-1 > 100 µM | A498 > 100 µM | SK-MEL-28 > 100 µM | UO-31 > 100 µM | NCI-H522 25.1 µM | KM12 > 100 µM | Malme-3M > 100 µM
